{
  "source": "patent US9352019B2",
  "about": "“Using heat shock proteins to improve the therapeutic benefit of a non-vaccine treatment modality” (University of Connecticut Health Center, priority 2002, dated 2016)",
  "origin": "cited, not measured here",
  "tested_on": "CML",
  "conditions": "Gleevec alone; Druker et al., 2002",
  "note": "Where a name gives a salt, the structure may show the parent alone.",
  "data": [
    {"smiles": "Cc1ccc(NC(=O)c2ccc(CN3CCN(C)CC3)cc2)cc1Nc1nccc(-c2cccnc2)n1", "note": "[Gleevec™, imatinib mesylate]", "values": [
      {"measurement": "patients achieving responses using these same criteria", "value": "less than 10% of patients"}
    ]}
  ]
}
